The source of these data is patent US20210220489A1, “AMYGDALAR NEURAL ENSEMBLE THAT ENCODES THE UNPL[…] PAIN” (The Board of Trustees of the Leland Stanford Junior …, priority 2020, published 2021).

The test system of assay [1] is neuropathic TRAP^hM4 mice. Put plainly: Neuropathic (spared nerve injury) reflexive and affective-motivational pain behaviors. The assay is classed as in vivo. Particulars: day 42 postinjury. From the text:
To induce a chronic pain state, we used a modified version of the Spared Nerve Injury (SNI) model of neuropathic pain, as previously described (70). This model entails surgical section of two of the sciatic nerve branches (common peroneal and tibial branches) while sparing the third (sural branch). […] To perform this peripheral nerve injury procedure, anesthesia was induced and maintained throughout surgery with isoflurane (4% induction, 1.5% maintenance in oxygen). The left hind leg was shaved and wiped clean with alcohol and betadine. We made a 1-cm incision in the skin of the mid-dorsal thigh, approximately where the sciatic nerve trifurcates. […] Mice were then returned to their home cage and closely monitored over the following three days for well-being.
We habituated mice inside individual red plastic cylinders (10.16-cm D) on a raised flat, perforated metal platform (60.96-cm H) for 3 days prior to the start of behavioral sensory testing. After basal thermal and mechanical thresholds were measured, mice underwent a peripheral nerve injury surgery (Spared Nerve Injury, SNI; see “Chronic neuropathic pain model” above for details of the surgical procedure). […]

For assay [2], the system named is neuropathic TRAP^hM4 mice. Description: Two-chamber thermal escape-avoidance (cold place aversion) assay. Particulars: floor of one chamber cooled from 30° to 10° C. The class given is in vivo. The procedure:
To evaluate neuropathic adaptive cool/cold avoidance behavior, mice with SNI freely explored a two-temperature choice chamber. The chamber was constructed from adjoining two thermal plates (Bioseb): one reference plate set at 30° C., and a test plate with the temperature adjusted to either 30, 25, 20, 15, or 10° C. for independent trials. The test plate temperature order was randomized for each trial within the day. The chamber (white opaque plastic with no distinguishing features and no divider, 30.48×15.24×15.24 cm) was fitted onto the conjoined plates. At Day 56 post SNI and at 30-min post CNO injection, we placed mice on the reference plate facing the back wall. Mice then freely explored the chamber for 5 min, while an overhead camera recorded the chamber position and locomotion. After each trial, the mouse was returned to the holding cylinder, while the test plate temperature was rapidly cooled or heated to the next randomly assigned temperature trial. This procedure was repeated until all temperature trials were collected (6 temperature trials total). Video files for each trial were later analyzed using automated tracking software (Ethovision, Noldus) for path tracking, time spent on the test plate, and number of entries onto the test plate.

A further assay has as its system BLA neurons. Description: Clozapine-N-oxide control experiments with BLA Ca2+ imaging (no hM4 expression). The assay is classed as in vivo, mice. Particulars: CNO 10 mg/kg. The procedure: To check for possible alterations of neural activity in the presence of CNO alone (i.e., no hM4 expression), we conducted a shortened version of the main protocol (FIGS. 15D-15G). We injected mice with CNO (10 mg/kg), then placed them back in their home cage. After approximately 25 min, we mounted the miniature microscope on the mouse's head and placed them within the test chamber. They habituated for 10 min followed by adlibitum access to 10% sucrose solution delivered in the same manner as previously described. Mice then received a battery of stimuli: light touch (0.07-g von Frey filament), noxious pin (25G needle), or aloud noise (˜85 dB, same as previously described). We collected all subsequent data, processed Ca2+ imaging movies, and performed analysis similar to the main protocol used in FIG. 7.

With `C[N+]1([O-])CCN(C2=Nc3cc(Cl)ccc3Nc3ccccc32)CC1` [CNO, clozapine-N-oxide], the reflexive hypersensitivity result in assay [1] is “did not alter”. In addition, the neuropathic affective-motivational behaviors result in assay [1] (regardless of stimulus intensity or modality) is reported as “profound decrease”. The “preference between cold and neutral temperature chambers” value in assay [2] is recorded as “near-total indifference”. Moreover, the “mean neural response to various stimuli” value with BLA neurons is “did not alter”.
